Results published in the supplement of paper PMC13380429.

Experiments:
Settings in all cases: 72 h
Caco-2 [1] = assay: drug sensitivity score (DSS) for viability; higher = more toxic; extreme values may be limits of the assay
Vero E6 [2] = assay: as above
Calu-3 [3] = assay: as above
U2OS [4] = assay: as above
HepG2 [5] = assay: as above
Caco-2 [6] = assay: cell viability relative to DMSO; higher = less toxic
Vero E6 [7] = assay: as above
Calu-3 [8] = assay: as above
U2OS [9] = assay: as above
HepG2 [10] = assay: as above
Caco-2 [11] = assay: relative viability EC50 (midpoint between 100% and the lowest measured viability); higher = less toxic
Vero E6 [12] = assay: as above
Calu-3 [13] = assay: as above
U2OS [14] = assay: as above
HepG2 [15] = assay: as above

SMILES	drug sensitivity score (Caco-2 [1])	drug sensitivity score (Vero E6 [2])	drug sensitivity score (Calu-3 [3])	drug sensitivity score (U2OS [4])	drug sensitivity score (HepG2 [5])	cell viability (Caco-2 [6]; 1 nM) [%]	cell viability (Caco-2 [6]; 10 nM) [%]	cell viability (Caco-2 [6]; 100 nM) [%]	cell viability (Caco-2 [6]; 1000 nM) [%]	cell viability (Caco-2 [6]; 10000 nM) [%]	cell viability (Vero E6 [7]; 1 nM) [%]	cell viability (Vero E6 [7]; 10 nM) [%]	cell viability (Vero E6 [7]; 100 nM) [%]	cell viability (Vero E6 [7]; 1000 nM) [%]	cell viability (Vero E6 [7]; 10000 nM) [%]	cell viability (Calu-3 [8]; 1 nM) [%]	cell viability (Calu-3 [8]; 10 nM) [%]	cell viability (Calu-3 [8]; 100 nM) [%]	cell viability (Calu-3 [8]; 1000 nM) [%]	cell viability (Calu-3 [8]; 10000 nM) [%]	cell viability (U2OS [9]; 1 nM) [%]	cell viability (U2OS [9]; 10 nM) [%]	cell viability (U2OS [9]; 100 nM) [%]	cell viability (U2OS [9]; 1000 nM) [%]	cell viability (U2OS [9]; 10000 nM) [%]	cell viability (HepG2 [10]; 1 nM) [%]	cell viability (HepG2 [10]; 10 nM) [%]	cell viability (HepG2 [10]; 100 nM) [%]	cell viability (HepG2 [10]; 1000 nM) [%]	cell viability (HepG2 [10]; 10000 nM) [%]	relative viability EC50 (Caco-2 [11]) [µM]	relative viability EC50 (Vero E6 [12]) [µM]	relative viability EC50 (Calu-3 [13]) [µM]	relative viability EC50 (U2OS [14]) [µM]	relative viability EC50 (HepG2 [15]) [µM]
CNC(=O)c1cnn(-c2nc(N)c3ncn([C@@H]4O[C@H](CO)[C@@H](O)[C@H]4O)c3n2)c1 [regadenoson]	0	0	0	0	0	101	97.4	91.1	94.3	108	101	93.7	86.2	103	111	91.7	104	106	102	103	95.9	92.1	102	99	104	102	105	102	90.7	117	> 10	> 10	> 10	> 10	> 10
COc1ccc(S(=O)(=O)N2c3ccc(Cl)cc3[C@](O)(c3ccccc3Cl)[C@@H]2C(=O)N2CCC[C@H]2C(N)=O)cc1OC [relcovaptan]	0	0	0	0	0	102	102	91.6	102	87.5	103	99.8	92.4	97.2	97.5	91.8	100	93.3	108	86.7	103	105	102	105	99.2	108	99.4	108	98.8	94.3	> 10	> 10	> 10	> 10	> 10
O=C(O)c1cc(O)c2c(c1)C(=O)c1cccc(O)c1C2=O [rhein]	0	0	0	0	0.2	100	102	97.6	95.7	98.1	98.7	92.7	95.5	99.1	99.2	90	96.6	106	98.5	111	103	98.4	99	98.2	102	110	95.5	106	93.3	88.6	> 10	> 10	> 10	> 10	> 10
CCC(=O)[C@@]1(C)[C@H](C)C[C@H]2[C@@H]3CCC4=CC(=O)C=C[C@]4(C)[C@H]3[C@@H](O)C[C@@]21C [rimexolone]	0	0	0	0	0	85.5	90.5	101	88.8	107	93.8	95.2	90	94.7	100	98.4	99	89.4	102	96.4	99.8	98.9	100	95.5	97	86.3	102	95.4	112	92.8	> 10	> 10	> 10	> 10	> 10
NC(=O)c1ccc(F)c2c1C[C@@H](N(C1CCC1)C1CCC1)CO2 [robalzotan]	0	0	0	0	0	92.7	98.3	97.5	105	99.5	102	99.8	107	94.4	103	98.8	110	94.5	91.2	97.7	102	107	97.7	105	99.1	105	101	99.5	96.9	100	> 10	> 10	> 10	> 10	> 10
CC1CCC(NC(=O)N(CCCl)N=O)CC1 (stereo not given) [semustine]	0	0	0	0	0	99.1	103	104	91.1	91.7	106	99.6	105	104	99.8	98.5	110	87	97.2	99.4	98.8	96.6	99.6	99.5	99.9	96.3	108	92.3	107	91.8	> 10	> 10	> 10	> 10	> 10
CC1=C(C)C(=O)C(C(CCCCCC(=O)O)c2ccccc2)=C(C)C1=O (stereo not given) [seratrodast]	0	0	0	0	0	91	92.7	104	90.4	95.3	97.7	99.5	96.4	96.9	98.2	104	91	99	99.2	104	99.8	95.7	99.6	93.2	98.5	98.7	98.7	101	98.1	103	> 10	> 10	> 10	> 10	> 10
N[C@@H]1CN(c2c(F)cc3c(=O)c(C(=O)O)cn([C@@H]4C[C@@H]4F)c3c2Cl)CC12CC2 [sitafloxacin]	0	0	0	0	0	95.2	95.6	91.6	106	97.2	91.3	98	91.6	99	106	98.5	94	98	96.7	93.9	104	96.3	96	95.8	96.8	107	101	97.5	110	108	> 10	> 10	> 10	> 10	> 10
C[C@@H]1CN(Cc2ccc(F)cc2)[C@@H](C)CN1C(=O)c1cc2c(C(=O)C(=O)N(C)C)cn(C)c2cc1Cl [talmapimod]	1.5	2.1	0	0	0	103	99.2	90.4	86.4	91.8	96.1	103	93.5	84.6	85	106	101	99.8	92.9	100	106	101	103	96.9	90.6	112	108	100	104	104	> 10	> 10	> 10	> 10	> 10
Cc1ccc2c(c1CCC(=O)O)CC[C@@H](NS(=O)(=O)c1ccc(Cl)cc1)C2 [terutroban]	0	0	0	0	0	93	97.4	100	102	92.2	96.8	97.6	95.6	94.6	95.8	93.2	85.6	92.8	105	97.7	97.1	96.7	94.4	99.5	93.2	102	90.7	95.1	103	96.3	> 10	> 10	> 10	> 10	> 10
CN(C)[C@@H]1C(O)=C(C(N)=O)C(=O)[C@@]2(O)C(O)=C3C(=O)c4c(O)cccc4[C@@](C)(O)[C@H]3C[C@@H]12 [tetracycline]	0	0	0	0	0	101	88.2	98.8	97.1	93.8	100	102	100	101	95.5	99.6	106	100	107	108	104	98.5	102	95	97.2	107	96.4	107	108	95.4	> 10	> 10	> 10	> 10	> 10
Cn1cnc2c1c(=O)[nH]c(=O)n2C [theobromine]	0	0	0	0	0	99.1	110	106	121	104	101	92.7	103	98	103	91.3	90.3	100	97.4	98.8	92.6	101	95.7	97.6	100	87.6	79.8	99.3	95.7	95.6	> 10	> 10	> 10	> 10	> 10
O=c1sn(-c2cccc3ccccc23)c(=O)n1Cc1ccccc1 [tideglusib]	0	0	0	0	0	95.6	90.2	102	98.9	110	97	96.8	97	93.9	100	108	97.7	106	99	97.2	98	101	103	102	97	90.7	106	100	98.8	103	> 10	> 10	> 10	> 10	> 10
N#Cc1cn([C@@H]2O[C@H](CO)[C@@H](O)[C@H]2O)c2ncnc(N)c12 [toyocamycin]	29.7	32.6	27.7	34.2	35.6	94.4	35	42.8	34.9	38.6	88.1	84.4	2.2	2.8	1.8	93	73.8	27.8	14.5	9.8	94.5	56.7	9.5	2.5	1	89.1	50.3	8.3	-0.4	0.1	0.0025	0.0194	0.0244	0.0125	0.0098
